These are literature values, as cited in US10357535B2, “Daptomycin formulations and uses thereof” (priority 2012, dated 2019).

One data set concerns MSSA. Particulars: in less than one hour.
The subject of a further data set is MRSA. Particulars: in less than one hour.

As for `CCCCCCCCCC(=O)NC(Cc1c[nH]c2ccccc12)C(=O)NC(CC(N)=O)C(=O)NC(CC(=O)O)C(=O)NC1C(=O)NCC(=O)NC(CCCN)C(=O)NC(CC(=O)O)C(=O)NC(C)C(=O)NC(CC(=O)O)C(=O)NCC(=O)NC(CO)C(=O)NC(C(C)CC(=O)O)C(=O)NC(CC(=O)c2ccccc2N)C(=O)OC1C` (centres unmarked) [daptomycin, Daptomycin], the bacteria dead result with MSSA and in the data set on MRSA was “greater than 99.9%” throughout.
